Patent EP0346791B1, “1,2-diarylethylamines for treatment of neurotoxic injury” (priority 1988, dated 1989)
Read-outs that look alike come from different tables or passages of the source.

Experiments:
PCP receptors = format: binding; conditions: 1 nM 3H-TCP, whole rat brain membranes, 1 hour incubation; value ± SEM; read-out: Ki apparent
hippocampal neurons [1] = assay: Chronic hypoxic insult assay (MTT neuronal survival); format: cell-based, Sprague-Dawley rats; conditions: for Optical Density: 6 hours anaerobic chamber, then 2 hours normal O2, MTT 570 nm, ± SEM, untreated control 0.058, hypoxia alone 0.020; for Maximum protection of neurons from hypoxic insult was obtained with: concentration giving maximum protection
Description: Compound Nos. 4 and 5 were tested for their ability to protect hippocampal neurons from hypoxia-induced cell death. Cultures of hippocampal neurons were prepared from embryonic day 17 Sprague-Dawley rats. The hippocampi were dissociated into a single cell suspension by incubation with 0.25% trypsin, […] DNase followed by gentle trituration through a Pasteur pipet. The cells were plated in a polylysine-coated 96-well plate and maintained in a chemically defined medium until use. The cells were grown for 2 to 3 weeks in 5% CO₂-in-air humidified environment at 36°C to establish a thick network of neuronal processes with numerous spontaneously active synapses. Exposure to hypoxic/anoxic environment was accomplished by placing the cultures in an anaerobic chamber, and flushing it with a mixture of 95% N₂+ 5% CO₂ gas to rapidly drop the O₂ tension to near zero. The O₂ tension was maintained at near zero using a disposable H₂ + CO₂ generator envelope with palladium catalyst. Compound No. 4 and Compound No. 5 were added to the culture medium prior to incubation in the anaerobic chamber and maintained there for 6 hours. Following 2 hours of exposure to normal O₂ tension, the cultures were processed for morphological and quantitive biochemical neuronal cell viability assays.
The neuronal survival assay utilized the compound MTT [(3-(4,5-dimethylthiazol-2-yl)-2,5-diphenyl tetrazolium bromide)], a pale yellow substrate that is cleaved by the mitochondrial enzyme succinate-dehydrogenase to yield a dark blue formazan product. This process requires active mitochondria, present only in live cells. Cultures of hippocampal neurons grown in 96-well plates were incubated with 1 mg/ml MTT at 36°C in a 10% CO₂-in-air incubator for 30-60 min. At the end of the incubation, a dark blue precipitate outlined only viable cells. The precipitate was then solubilized using 0.08 N HCl/isopropanol mixture and the absorbance measured with an ELISA plate reader (Dynatech MR600) using a test wavelength of 570 nm and a reference wavelength of 630 nm. The resulting optical density is directly proportional to the number of viable cells.

Male Sprague-Dawley rats = assay: Behavioral assay (stereotyped behavior, PCP rating scale); format: in vivo; conditions: 95% confidence intervals in parenthesis; for ED50: Rattus norvegicus
Description: Nine compounds were tested in comparison with PCP and TCP by an in vivo assay which determined stereotypic behavior in rats treated with the compounds. Male Sprague-Dawley rats weighing 200 to 250 g were used in the behavioral experiments. Each rat was used only once. Rats were anesthetized lightly with ether before a 20-gauge needle was used to make a hole in the rat's skull for i.c.v. injection of drugs at a later date. These rats were allowed to recover for at least 1 day before being used in the behavioral assays. On the day of the experiment, rats were placed individually into plastic rat cages and allowed at least 1 hr to acclimate before testing. Drugs were administered to rats in a random, single-blind fashion.
Dose-response curves for each treatment were determined at the time of maximal behavioral effect. Peak effects were found 5 min after i.c.v. administration of PCP (25-20000 nmol/rat). […] A rating of 5 in the PCP-rating scale was considered as complete stereotyped behavior, that is, a 100% response. At least 21 rats (at least seven rats/dose) were used to determine each dose-response curve and ED₅₀ values. ED₅₀ values and dose-response curves were evaluated using a computerized Finney assay [Statistical Methods In Biological Assays, 2nd Edn., Hatner Pub. Co., New York (1964)].
The ability of the tested compounds to induce stereotyped behavior was assessed at 2.5, 5 and 10 minutes and thereafter every 5 min up to 1 hr after i.c.v., i.p., or s.c. administration.

hippocampal neurons [2] = assay: Acute azide toxicity assay (MTT neuronal survival); format: cell-based, Sprague-Dawley rats; conditions: 10 µM sodium azide for 1 hour
Male Mongolian gerbils = assay: Forebrain ischemia assay (carotid occlusion, CA1 cell loss); format: in vivo; conditions: 30 mg/kg i.p. 30 minutes prior to carotid occlusion; 7 days; vs saline injected gerbils; Mann-Whitney U test p<0.01
Description: Male Mongolian gerbils, 50-70 gm, were used as subjects. Compound No. 1 (30 mg/kg) was injected i.p. 30 minutes prior to carotid occlusion into 6 gerbils. In preparation for surgical procedures, the animals were lightly anesthetized with methoxyflurane and placed upside down on a heated pad with their snout within a nosecone. Nitrous oxide (70%): oxygen (30%) plus 0.5% halothane was circulated through the nosecone to provide continuous anesthesia throughout the surgical procedure. A midline incision was made in the neck and the carotid arteries were exposed. A length of suture thread was placed under each carotid. The thread was then tightened around each carotid and pressure applied to the thread to insure flow was occluded. Flow was occluded for 4-5 minutes and then the thread was removed. The carotids were visually inspected to confirm that reflow had occurred. The wound was then closed with autoclips and the gerbils allowed to recover. Following surgery, the gerbils were kept alive for 7 days. They were anesthetized with 100 mg/kg sodium pentobarbital and perfused transcardially with saline (with heparin) followed by buffered formalin. The brain was removed, trimmed and prepared for histological processing. Sections (10 microns) were stained with thionin. […]

[3] = ip, read-out: Stereotyped Behavior ED₅₀ i.p.
[4] = sc, read-out: Stereotyped Behavior ED₅₀ s.c.

Cc1cccc(C(Cc2ccccc2)N2CCCCC2)c1 (racemic) [Compound No. 29]
Ki (PCP receptors): 110 ± 30 nM

c1ccc(CC(c2cccc3ccccc23)N2CCCCC2)cc1 (racemic) [Compound No. 33]
Ki (PCP receptors): 6000 ± 1700 nM

c1ccc(CC(c2ccco2)N2CCCCC2)cc1 (racemic) [Compound No. 30]
Ki (PCP receptors): 400 ± 10 nM

c1ccc(CC(c2ccccc2)N2CCCCC2)cc1 (single isomer, unassigned) [Compound No. 4]
Optical Density (hippocampal neurons [1]; Hypoxia + 1 µM compound): 0.046 ± 0.01 | Maximum protection of neurons from hypoxic insult was obtained with (hippocampal neurons [1]): 1 µM | ED50 (Male Sprague-Dawley rats; [3]): 2.1 mg/kg | Stereotyped Behavior ED₅₀ i.c.v. (Male Sprague-Dawley rats): 120(100-140) nmoles/rat | Stereotyped Behavior ED₅₀ s.c. (Male Sprague-Dawley rats): 0.78(0.60-1.0) mg/kg | protection of neurons from sodium azide toxicity (hippocampal neurons [2]; 100 µM compound): significant protection | Optical Density (hippocampal neurons [2]; Sodium azide + 100 µM compound, MTT, ± SEM, control 0.123, sodium azide alone 0.075): 0.133 ± 0.01

c1ccc(CC(c2ccccc2)N2CCCC2)cc1 (racemic) [Compound No. 20]
Ki (PCP receptors): 16000 ± 2600 nM | ED50 (Male Sprague-Dawley rats; [4]): 7.8 mg/kg

c1ccc(CC(c2ccccc2)N2CCCCC2)cc1 (single isomer, unassigned) [Compound No. 3]
Stereotyped Behavior ED₅₀ s.c. (Male Sprague-Dawley rats): >40 mg/kg

C1=CCN(C(Cc2ccccc2)c2ccccc2)CC1 (racemic) [Compound No. 6]
Stereotyped Behavior ED₅₀ i.c.v. (Male Sprague-Dawley rats): 100(81-120) nmoles/rat

CC(C)(c1ccccc1)C(c1cccs1)N1CCCCC1 (racemic) [Compound No. 25]
Ki (PCP receptors): > 30000 nM

CC(C)C(c1ccccc1)C(c1ccccc1)N1CCCCC1 (racemic) [Compound No. 12]
ED50 (Male Sprague-Dawley rats; [4]): > 50 mg/kg

CC1CC(C)CN(C(Cc2ccccc2)c2ccccc2)C1 (racemic) [Compound No. 24]
Ki (PCP receptors): 850 ± 40 nM

c1ccc(CC(c2ccccc2)N2CCCCC2)cc1 (racemic) [Compound No. 1]
ED50 (Male Sprague-Dawley rats; [3]): 2 mg/kg | ED50 (Male Sprague-Dawley rats; [4]): 2.9 mg/kg | cell loss in CA1 (Male Mongolian gerbils): significantly reduced

OC(c1ccccc1)C(c1ccccc1)N1CCCCC1 (racemic) [Compound No. 13]
ED50 (Male Sprague-Dawley rats; [4]): 11 mg/kg

COc1cccc(C(Cc2ccccc2)N2CCCCC2)c1 (racemic) [Compound No. 26]
Ki (PCP receptors): 100 ± 20 nM

CC(C)(c1ccccc1)C(c1ccccc1)N1CCCCC1 (racemic) [Compound No. 28]
Ki (PCP receptors): 12000 ± 1000 nM

COc1ccc(C(Cc2ccccc2)N2CCCCC2)cc1 (racemic) [Compound No. 22]
Ki (PCP receptors): 8100 ± 500 nM

c1ccc(C2(N3CCCCC3)CCCCC2)cc1 [PCP, Phencyclidine, reference compound]
Stereotyped Behavior ED₅₀ i.c.v. (Male Sprague-Dawley rats): 150(120-170) nmoles/rat

COc1ccccc1C(Cc1ccccc1)N1CCCCC1 (racemic) [Compound No. 32]
Ki (PCP receptors): 170 ± 10 nM

Cc1ccc(C(Cc2ccccc2)N2CCCCC2)cc1 (racemic) [Compound No. 21]
Ki (PCP receptors): 1800 ± 300 nM

c1ccc(C(N2CCCCC2)C2(c3ccccc3)CC2)cc1 (racemic) [Compound No. 23]
Ki (PCP receptors): > 30000 nM

C1=CCN(C(Cc2ccccc2)c2cccs2)CC1 (racemic) [Compound No. 15]
ED50 (Male Sprague-Dawley rats; [4]): 1.7 mg/kg

Fc1ccc(C(Cc2ccccc2)N2CCCCC2)cc1 (racemic) [Compound No. 27]
Ki (PCP receptors): 220 ± 10 nM

c1ccc(CC(c2cccs2)N2CCCCC2)cc1 (racemic) [Compound No. 5]
Optical Density (hippocampal neurons [1]; Hypoxia + 10 µM compound): 0.047 ± 0.01 | Maximum protection of neurons from hypoxic insult was obtained with (hippocampal neurons [1]): 10 µM | ED50 (Male Sprague-Dawley rats; [4]): 3.5 mg/kg

Clc1ccccc1C(Cc1ccccc1)N1CCCCC1 (racemic) [Compound No. 31]
Ki (PCP receptors): 0.19 ± 0.11 nM
